Measurements: PubChem BioAssay (NCI)
“And” between values parts separate entries of the source, which are not always exact repeats. Equal entries are not always repeated.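 96-well plates; 48 h exposure; 5 concentrations. Endpoints by linear interpolation between flanking doses. Not reached: highest tested concentration assigned. GI50 marks 50% less growth. At the TGI there is no net growth.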

Legend:
Assay in all cases: NCI anticancer screen, dose series, 48 h
CAKI-1 renal = system: CAKI-1 renal
CCRF-CEM leukemia = system: CCRF-CEM leukemia
DU-145 prostate = system: DU-145 prostate
EKVX NSCLC = system: EKVX NSCLC
HOP-62 NSCLC = system: HOP-62 NSCLC
RXF 393 renal = system: RXF 393 renal
SNB-19 CNS = system: SNB-19 CNS
T-47D breast = system: T-47D breast
UACC-257 melanoma = system: UACC-257 melanoma
HS 578T breast = system: HS 578T breast

Compound | GI50 (CAKI-1 renal) [µM] | TGI (CAKI-1 renal) | GI50 (CCRF-CEM leukemia) [µM] | TGI (CCRF-CEM leukemia) [µM] | GI50 (DU-145 prostate) [µM] | TGI (DU-145 prostate) | GI50 (EKVX NSCLC) [µM] | TGI (EKVX NSCLC) [µM] | GI50 (HOP-62 NSCLC) [µM] | TGI (HOP-62 NSCLC) [µM] | GI50 (RXF 393 renal) [µM] | TGI (RXF 393 renal) | GI50 (SNB-19 CNS) [µM] | TGI (SNB-19 CNS) [µM] | GI50 (T-47D breast) [µM] | TGI (T-47D breast) [µM] | GI50 (UACC-257 melanoma) [µM] | TGI (UACC-257 melanoma) [µM] | GI50 (HS 578T breast) [µM] | TGI (HS 578T breast) [µM]
Cc1ccc(-c2nc3cc(Cl)c(Cl)cc3nc2C#N)cc1 | > 100 | > 100 µM | > 100 | > 100 | > 100 | > 100 µM | > 100 | > 100 | > 100 | > 100 | > 100 | > 100 µM | > 100 | > 100 | > 100 | > 100 | > 100 | > 100 |  | 
COc1cc2c(cc1O)CN1CCC23C=C[C@@H](O)CC13 (stereo partly drawn) |  | > 100 µM |  | 81.3 |  |  |  | > 100 |  | > 100 |  | > 100 µM |  | > 100 |  |  |  | > 100 |  | 
O=S(=O)(c1ccccc1)N1CN2CN(C1)CN(S(=O)(=O)c1ccccc1)C2 |  | > 100 µM |  |  |  | > 100 µM |  | > 100 |  | > 100 |  | > 100 µM |  | > 100 |  |  |  | > 100 |  | 
O=C(N/N=C(/c1nc2ccc([N+](=O)[O-])cc2[nH]c1=O)C(O)c1ccc([N+](=O)[O-])cc1)c1ccncc1 (stereo not drawn) |  | > 100 µM |  | > 100 |  |  |  | > 100 |  | > 100 |  |  |  |  |  |  |  | > 100 |  | 
COc1ccc(S(=O)(=O)N[C@H](C(=O)O)c2ccccc2)cc1 |  | > 100 µM |  | > 100 |  |  |  | > 100 |  | > 100 |  | > 100 µM |  | > 100 |  |  |  | > 100 |  | 
CN(C)CCn1cnc2ncccc2c1=O |  | > 100 µM |  | > 100 |  |  |  | > 100 |  | > 100 |  | > 100 µM |  | > 100 |  |  |  |  |  | 
CCN(CC)CC(=O)NC1c2ccccc2Oc2c(C)cccc21 (stereo not drawn) |  |  |  | > 100 |  |  |  | > 100 |  | > 100 |  | > 100 µM |  | > 100 |  |  |  | > 100 |  | 
C=C1C(=O)O[C@H]2[C@H]1CC/C(Cn1cc(-c3cccc(Cl)c3)nn1)=C\CC[C@@]1(C)O[C@@H]21 | 0.869 | 2.13 µM | 0.2 | 0.685 | 1 | 2.16 µM | 1.57 | 2.92 | 1.94 | 3.68 | 0.558 | 1.85 µM | 2.4 | 6.45 |  |  | 1.42 | 2.8 | 2.26 | 5.56
COc1cccc(C2=C(c3cn(C)c4cc(F)ccc34)C(=O)NC2=O)c1 | > 13.4 | > 25 µM | 9.63 | > 25 | > 25 | > 25 µM |  |  | > 25 | > 25 | 8.79 | > 25 µM | > 25 | > 25 | 15.3 | > 25 | > 25 | > 25 | > 24 | > 25
COc1cc(-c2ccc(NC(=O)SCCC(=O)O)cc2OC)ccc1NC(=O)SCCC(=O)O |  | > 100 µM |  | > 100 |  |  |  | > 100 |  | > 100 |  | > 100 µM |  | > 100 |  |  |  | > 100 |  | 
C[C@@H](NC(=O)c1ncnc(N)c1Cl)c1ncc(C(=O)Nc2cc(C(F)(F)F)c(Cl)cn2)s1 | 25.4 | 71.6 µM | 25.4 | > 100 | 26.7 | > 82.7 µM |  |  | 24.3 | 84.8 | 24.2 | 68.7 µM | 26.6 | > 100 | 24.2 | > 83.8 | 0.478 | 4.77 | 23.4 | 98.9
CC(=O)OC(C)(C)/C=C/C(=O)[C@](C)(O)[C@H]1[C@H](O)C[C@@]2(C)[C@@H]3CC=C4[C@@H](C=C(O)C(=O)C4(C)C)[C@]3(C)C(=O)C[C@]12C |  | 44 nM [middle of 4 runs] |  |  | 0.0514 | 0.0997 µM and 0.689 µM |  |  |  |  |  | 46.1 nM [middle of 4 runs] |  |  |  | 1.46 |  |  |  | 
C[C@H](CS)C(=O)N1c2ccccc2C[C@H]1C(=O)O |  | > 100 µM |  | > 100 |  | > 100 µM |  | > 100 |  | > 100 |  |  |  | > 100 |  | > 100 |  | > 100 |  | > 100
COC1[C@H](NC(=O)OC(C)(C)C)C(=O)N1Cc1ccccc1 (stereo partly drawn) |  |  |  | > 100 |  |  |  | > 100 |  | > 100 |  | > 100 µM |  | > 100 |  |  |  | > 100 |  | 
O=CNc1ccc(S(=O)(=O)c2ccc(NC=O)cc2)cc1 |  | > 100 µM |  | > 100 |  | > 100 µM |  | > 100 |  | > 100 |  |  |  | > 100 |  | > 100 |  | > 100 |  | > 100
CCOC(=O)C(NO)C(Sc1ccccc1)c1ccc(OC)cc1 (stereo not drawn) |  |  |  |  |  |  |  | > 100 |  | > 100 |  | 52.3 µM |  | > 100 |  |  |  | > 100 |  | 
CC1CCC(=O)C(C(O)CC2CC(=O)N(c3ccccc3)C(=O)C2)C1 (stereo not drawn) |  | > 100 µM |  | > 100 |  |  |  | > 100 |  | > 100 |  | > 100 µM |  | > 100 |  |  |  | > 100 |  | 
OCc1ccc(N2CCc3cc(F)ccc3C2)cc1Cl | 1.34 | 13.6 µM | 3.9 | 28.9 | 6.67 | 20.6 µM |  |  | 0.302 | 17.9 | 0.993 | 17.5 µM | 13.2 | 26.3 |  |  | 0.0197 | 0.0723 | 21.3 | 59.1
CCCCCCCCCCCCCCCCc1c(C(=O)OC)nc(NN)[nH]c1=O |  | > 50 µM |  | > 50 |  |  |  | > 50 |  | > 50 |  | > 50 µM |  | > 50 |  |  |  | > 50 |  | 
Clc1ccc(CCc2ccncn2)c(Cl)c1 |  | > 100 µM |  |  |  |  |  | > 100 |  | > 100 |  | 82.4 µM |  | > 100 |  |  |  | > 100 |  | 
CCCCCCCCCCSC(=O)NC |  | > 100 µM |  | 48.3 |  |  |  | 71.4 |  |  |  | 44.1 µM |  | > 100 |  |  |  | 85 |  | 
